Source: patent US11827628B2, “Compositions and methods for inhibition of the JAK pathway” (Rigel Pharmaceuticals, Inc., priority 2005, dated 2023)

Key:
[1] = test system: IL-4 stimulated expression of CD23 in human Ramos B cells (JAK-1 and JAK-3); experiment: Assay for Ramos B-Cell Line Stimulated with IL-4 (CD23 upregulation, FACS); format: cell-based; conditions: Homo sapiens, Ramos, Ramos B cells stimulated with IL-4, CD23 expression by FACS; read-out: IC50, Example 41
Method in brief: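 Human Ramos B cells in RPMI with 5% serum were pre-incubated with compound or DMSO for 1 h at 37 °C, then stimulated with IL-4 at a final 50 units/mL for 20-24 h. CD23 upregulation was measured by anti-CD23-PE staining and flow cytometry, and IC50 values were calculated.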

[2] = test system: up-regulation of ICAM-1 (CD54) by IFNγ in U937 human monocytic cells; experiment: U937 IFNγ ICAM1 FACS Assay; format: cell-based; conditions: Homo sapiens, U-937, U937 cells stimulated with IFNγ, ICAM-1 expression by FACS; read-out: IC50, Example 44
Method in brief: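 U937 cells in 10% FCS RPMI were preincubated 30 min at 37 °C with an 8-point, 3-fold compound dilution series in duplicate, then stimulated with IFNγ for 18–24 h. Surface ICAM-1 was stained with APC anti-ICAM-1 and read by flow cytometry as geometric mean on live-gated cells. EC50 was derived.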

Compound | IC50 [1] [nM] | IC50 [2] [nM]
Cc1ccc(Nc2ncc(F)c(Nc3ccc4sccc4c3)n2)cc1S(N)(=O)=O [VII-57, N2-(3-Aminosulfonyl-4-methylphenyl)-N4-(benzothiophen-5-yl)-5-fluoro-2,4-pyrimidinediamine] | 107 | 735
NS(=O)(=O)c1cccc(Nc2ncc(F)c(Nc3ccc4sccc4c3)n2)c1 [VII-58, N2-(3-Aminosulfonylphenyl)-N4-(benzothiophen-5-yl)-5-fluoro-2,4-pyrimidinediamine] | 136 | 1100
Cc1ccc(Nc2ncc(F)c(Nc3ccc4ncccc4c3)n2)cc1S(N)(=O)=O [VII-69, N2-(3-Aminosulfonyl-4-methylphenyl)-5-fluoro-N4-(quinolin-6-yl)-2,4-pyrimidinediamine] | 76.7 | 990
NS(=O)(=O)c1cccc(Nc2ncc(F)c(Nc3ccc4ncccc4c3)n2)c1 [VII-70, N2-(3-Aminosulfonylphenyl)-5-fluoro-N4-(quinolin-6-yl)-2,4-pyrimidinediamine] | 65.4 | 2760
Cc1ccc2cc(Nc3nc(Nc4cccc(S(N)(=O)=O)c4)ncc3F)ccc2n1 [VII-72, N2-(3-Aminosulfonylphenyl)-5-fluoro-N4-(2-methylquinolin-6-yl)-2,4-pyrimidinediamine] | 84.8 | 1180
Cc1ccc(Nc2ncc(F)c(Nc3cccc4cccnc34)n2)cc1S(N)(=O)=O [VII-77, N2-(3-Aminosulfonyl-4-methylphenyl)-5-fluoro-N4-(quinolin-8-yl)-2,4-pyrimidinediamine] | 124 | 3540
